US10988477B2 (Merck Patent GmbH, priority 2018, dated 2021)

Assays:
[1] = target: intracellular GCN2 (phosphorylation of the GCN2 substrate eIF2α) (Homo sapiens, UniProt Q9P2K8); assay: GCN2 cellular inhibition assay (AlphaScreen SureFire P-eIF2α Ser51, borrelidin-treated U2OS cells); assay type: cell-based; conditions: compounds of Formula II; biomarker assay, phosphorylated eIF2α Ser51 in borrelidin-treated U2OS cells
In short: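 U2OS cells, adhered overnight, received compounds in 4-fold serial dilutions from 40 μM final, then 10 μM borrelidin for 1 h at 37 °C. Lysates were read by AlphaScreen for phospho-eIF2α Ser51; percent inhibition was set against borrelidin-only wells.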

[2] = target: GCN2 kinase (Homo sapiens, UniProt Q9P2K8); assay: GCN2 enzyme inhibition assay (Transcreener ADP2 fluorescence polarization); assay type: biochemical; conditions: compounds of Formula II; 280 μM ATP, 4 nM GCN2 kinase
GCN2 kinase, sequence (Q9P2K8 whole entry): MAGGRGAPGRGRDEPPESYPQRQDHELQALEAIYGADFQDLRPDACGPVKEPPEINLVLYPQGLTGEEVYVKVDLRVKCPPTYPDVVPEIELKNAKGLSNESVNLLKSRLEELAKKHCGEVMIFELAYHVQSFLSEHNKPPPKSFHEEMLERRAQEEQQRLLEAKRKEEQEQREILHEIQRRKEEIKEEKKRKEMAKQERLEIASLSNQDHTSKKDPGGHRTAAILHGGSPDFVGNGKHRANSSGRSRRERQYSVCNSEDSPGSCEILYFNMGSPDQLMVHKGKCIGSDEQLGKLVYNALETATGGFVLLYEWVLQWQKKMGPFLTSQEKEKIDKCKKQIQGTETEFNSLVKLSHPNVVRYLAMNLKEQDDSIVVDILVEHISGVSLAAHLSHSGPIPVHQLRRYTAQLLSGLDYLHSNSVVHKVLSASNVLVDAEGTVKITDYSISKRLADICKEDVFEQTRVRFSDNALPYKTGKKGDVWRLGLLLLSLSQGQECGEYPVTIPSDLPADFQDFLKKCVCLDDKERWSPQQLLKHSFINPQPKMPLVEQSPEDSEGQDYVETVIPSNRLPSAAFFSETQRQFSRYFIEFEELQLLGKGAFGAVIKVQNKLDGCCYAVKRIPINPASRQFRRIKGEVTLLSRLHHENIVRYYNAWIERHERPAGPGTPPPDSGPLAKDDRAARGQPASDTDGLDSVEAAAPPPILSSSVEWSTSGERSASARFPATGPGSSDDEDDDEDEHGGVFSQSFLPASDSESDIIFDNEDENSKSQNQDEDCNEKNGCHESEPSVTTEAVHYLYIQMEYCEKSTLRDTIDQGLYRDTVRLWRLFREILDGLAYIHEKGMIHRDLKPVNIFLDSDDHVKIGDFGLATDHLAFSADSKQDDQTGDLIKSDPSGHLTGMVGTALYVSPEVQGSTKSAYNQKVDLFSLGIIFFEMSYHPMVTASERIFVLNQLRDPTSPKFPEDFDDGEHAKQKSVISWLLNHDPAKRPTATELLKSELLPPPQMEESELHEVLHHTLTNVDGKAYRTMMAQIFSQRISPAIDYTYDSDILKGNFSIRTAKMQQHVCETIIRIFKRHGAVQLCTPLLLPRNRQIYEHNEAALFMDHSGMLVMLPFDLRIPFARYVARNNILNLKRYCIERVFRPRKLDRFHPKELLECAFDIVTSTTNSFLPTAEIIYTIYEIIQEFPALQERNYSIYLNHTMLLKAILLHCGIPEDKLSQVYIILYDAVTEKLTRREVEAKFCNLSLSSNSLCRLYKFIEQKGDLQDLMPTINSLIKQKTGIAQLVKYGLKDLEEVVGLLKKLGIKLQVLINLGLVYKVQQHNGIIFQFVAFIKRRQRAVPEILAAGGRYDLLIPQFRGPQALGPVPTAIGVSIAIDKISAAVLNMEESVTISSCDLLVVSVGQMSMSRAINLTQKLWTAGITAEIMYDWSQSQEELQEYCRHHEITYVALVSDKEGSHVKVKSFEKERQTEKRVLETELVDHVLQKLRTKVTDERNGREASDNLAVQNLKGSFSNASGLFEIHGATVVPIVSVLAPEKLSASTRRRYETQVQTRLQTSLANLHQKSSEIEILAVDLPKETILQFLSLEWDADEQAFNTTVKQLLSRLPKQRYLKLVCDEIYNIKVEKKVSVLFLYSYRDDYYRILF
In short: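 4 nM GCN2 + 200 μM (RS)7 + compound (0–8 μM), 10 min preinc.; start with ATP (280 μM final); 1 h, 25 °C; pH 7.5 Tris/NaCl/MgCl2/DTT; ADP FP readout; IC50, Ki(app) via tight-binding fit.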

intracellular GCN2 (phosphorylation of the GCN2 substrate eIF2α), sequence (Q9P2K8 whole entry): as above

Row | Compound | IC50 [1] [µM] | Ki [2] [µM]
1 | CS(=O)(=O)NCC1CCN(c2cc(-c3cnc4ccc(C(F)F)nn34)ccn2)C1 (stereo not drawn) [II-123, N-((1-(4-(6-(Difluoromethyl)imidazo[1,2-b]pyridazin-3-yl)pyridin-2-yl)pyrrolidin-3-yl)methyl)methanesulfonamide] | 0.5 to 5 | 0.01 to 1
2 | CS(=O)(=O)NOC1CCCN(c2cc(-c3cnc4ccc(C(F)F)nn34)ccn2)C1 (stereo not drawn) [II-124, N-((1-(4-(6-(Difluoromethyl)imidazo[1,2-b]pyridazin-3-yl)pyridin-2-yl)piperidin-3-yl)oxy)methanesulfonamide] | 0.5 to 5 | < 0.01
3 | CC(=O)N1CCN(c2ccnc(-c3cnc4ccc(C(F)F)nn34)c2)CC1 [II-127, 1-(4-(2-(6-(Difluoromethyl)imidazo[1,2-b]pyridazin-3-yl)pyridin-4-yl)piperazin-1-yl)ethanone] | 0.5 to 5 | 0.01 to 1
4 | NC(=O)C1CN(c2cc(-c3cnc4ccc(C(F)F)nn34)ccn2)CCO1 (stereo not drawn) [II-135, 4-(4-(6-(Difluoromethyl)imidazo[1,2-b]pyridazin-3-yl)pyridin-2-yl)morpholine-2-carboxamide] | 0.5 to 5 | 0.01 to 1
5 | CS(=O)(=O)N1CC2(CCCN(c3cc(-c4cnc5ccc(C(F)F)nn45)ccn3)C2)C1 [II-136, 6-(Difluoromethyl)-3-(2-(2-(methylsulfonyl)-2,6-diazaspiro[3.5]nonan-6-yl)pyridin-4-yl)imidazo[1,2-b]pyridazine] | < 0.5 | < 0.01
6 | CS(=O)(=O)NCC1(F)CCCN(c2cc(-c3cnc4ccc(C(F)F)nn34)ccn2)C1 (stereo not drawn) [II-139, N-((1-(4-(6-(Difluoromethyl)imidazo[1,2-b]pyridazin-3-yl)pyridin-2-yl)-3-fluoropiperidin-3-yl)methyl)methanesulfonamide] | 0.5 to 5 | 0.01 to 1
7 | CS(=O)(=O)NCC1CCCN(c2cc(-c3cnc4ccc(C(F)F)nn34)cc(O)n2)C1 (stereo not drawn) [II-141, N-((1-(4-(6-(difluoromethyl)imidazo[1,2-b]pyridazin-3-yl)-6-oxo-1,6-dihydropyridin-2-yl)piperidin-3-yl)methyl)methanesulfonamide] | 0.5 to 5 | < 0.01
8 | COc1cc(-c2cnc3ccc(C(F)F)nn23)cc(N2CCCC(CNS(C)(=O)=O)C2)n1 (stereo not drawn) [II-142, N-((1-(4-(6-(Difluoromethyl)imidazo[1,2-b]pyridazin-3-yl)-6-methoxypyridin-2-yl)piperidin-3-yl)methyl)methanesulfonamide] | 0.5 to 5 | < 0.01
9 | NS(=O)(=O)CC1CCCN(c2cc(-c3cnc4ccc(C(F)F)nn34)ccn2)C1 (stereo not drawn) [II-144, (1-(4-(6-(Difluoromethyl)imidazo[1,2-b]pyridazin-3-yl)pyridin-2-yl)piperidin-3-yl)methanesulfonamide] | 0.5 to 5 | 0.01 to 1
10 | NC(=O)CC1CCCN(c2cc(-c3cnc4ccc(C(F)F)nn34)ccn2)C1 (stereo not drawn) [II-145, 2-(1-(4-(6-(Difluoromethyl)imidazo[1,2-b]pyridazin-3-yl)pyridin-2-yl)piperidin-3-yl)acetamide] | 0.5 to 5 | 0.01 to 1
11 | OCCC1CN(c2cc(-c3cnc4ccc(C(F)F)nn34)ccn2)CCO1 (stereo not drawn) [II-146, 2-(4-(4-(6-(Difluoromethyl)imidazo[1,2-b]pyridazin-3-yl)pyridin-2-yl)morpholin-2-yl)ethanol] | 0.5 to 5 | 0.01 to 1
12 | FC(F)c1ccc2ncc(-c3ccnc(N4CCOC(c5cn[nH]c5)C4)c3)n2n1 (stereo not drawn) [II-147, 4-(4-(6-(Difluoromethyl)imidazo[1,2-b]pyridazin-3-yl)pyridin-2-yl)-2-(1H-pyrazol-4-yl)morpholine] | < 0.5 | 0.01 to 1
13 | CC1(C)CN(c2cc(-c3cnc4ccc(C(F)F)nn34)ccn2)C[C@H](CNS(C)(=O)=O)O1 [II-148, (R)—N-((4-(4-(6-(Difluoromethyl)imidazo[1,2-b]pyridazin-3-yl)pyridin-2-yl)-6,6-dimethylmorpholin-2-yl)methyl)methanesulfonamide] | < 0.5 | < 0.01
14 | CS(=O)(=O)NCC1CN(c2cc(-c3cnc4ccc(C(F)F)nn34)ncn2)CC1O (stereo not drawn) [II-152, N-((1-(6-(6-(Difluoromethyl)imidazo[1,2-b]pyridazin-3-yl)pyrimidin-4-yl)-4-hydroxypyrrolidin-3-yl)methyl)methanesulfonamide] | > 5 | 0.01 to 1
15 | CS(=O)(=O)NCC1CN(c2cc(-c3cnc4ccc(C(F)F)nn34)ccn2)CCC1(F)F (stereo not drawn) [II-153, N-[[1-[4-[6-(Difluoromethyl)imidazo[1,2-b]pyridazin-3-yl]-2-pyridyl]-4,4-difluoro-3-piperidyl]methyl]methanesulfonamide] | < 0.5 | < 0.01

Continued, values first:

Row | IC50 [1] [µM] | Ki [2] [µM] | Compound
16 | < 0.5 | < 0.01 | CS(=O)(=O)NCC1CCCN(c2ccnc(-c3cnc4ccc(C(F)F)nn34)c2)C1 (stereo not drawn) [II-125, N-((1-(2-(6-(Difluoromethyl)imidazo[1,2-b]pyridazin-3-yl)pyridin-4-yl)piperidin-3-yl)methyl)methanesulfonamide]
17 | > 5 | 0.01 to 1 | CS(=O)(=O)N1CC2(CN(c3cc(-c4cnc5ccc(C(F)F)nn45)ccn3)CCO2)C1 [II-126, 8-(4-(6-(Difluoromethyl)imidazo[1,2-b]pyridazin-3-yl)pyridin-2-yl)-2-(methylsulfonyl)-5-oxa-2,8-diazaspiro[3.5]nonane]
18 | 0.5 to 5 | 0.01 to 1 | CS(=O)(=O)CCC1CCCN(c2cc(-c3cnc4ccc(C(F)F)nn34)ccn2)C1 (stereo not drawn) [II-128, 6-(Difluoromethyl)-3-(2-(3-(2-(methylsulfonyl)ethyl)piperidin-1-yl)pyridin-4-yl)imidazo[1,2-b]pyridazine]
19 | 0.5 to 5 | < 0.01 | Cc1cc(-c2cnc3ccc(C(F)F)nn23)cc(N2CCCC(CNS(C)(=O)=O)C2)n1 (stereo not drawn) [II-129, N-((1-(4-(6-(Difluoromethyl)imidazo[1,2-b]pyridazin-3-yl)-6-methylpyridin-2-yl)piperidin-3-yl)methyl)methanesulfonamide]
20 | > 5 | 0.01 to 1 | CS(=O)(=O)NCC1CCCN(c2cc(-c3cnc4ccc(C(F)F)nn34)cc(C#N)n2)C1 (stereo not drawn) [II-130, N-((1-(6-Cyano-4-(6-(difluoromethyl)imidazo[1,2-b]pyridazin-3-yl)pyridin-2-yl)piperidin-3-yl)methyl)methanesulfonamide]
21 | < 0.5 | < 0.01 | CS(=O)(=O)N(O)CC1CN(c2cc(-c3cnc4ccc(C(F)F)nn34)ccn2)CCC1(F)F (stereo not drawn) [II-131, N-((1-(4-(6-(Difluoromethyl)imidazo[1,2-b]pyridazin-3-yl)pyridin-2-yl)-4,4-difluoropiperidin-3-yl)methyl)-N-hydroxymethanesulfonamide]
22 | 0.5 to 5 | < 0.01 | CC(NS(C)(=O)=O)C1CCCN(c2cc(-c3cnc4ccc(C(F)F)nn34)ccn2)C1 (stereo not drawn) [II-133, N-(1-(1-(4-(6-(Difluoromethyl)imidazo[1,2-b]pyridazin-3-yl)pyridin-2-yl)piperidin-3-yl)ethyl)methanesulfonamide]
23 | 0.5 to 5 | 0.01 to 1 | CC(NS(C)(=O)=O)C1CCCN(c2cc(-c3cnc4ccc(C(F)F)nn34)ccn2)C1 (stereo not drawn) [II-134, N-(1-(1-(4-(6-(Difluoromethyl)imidazo[1,2-b]pyridazin-3-yl)pyridin-2-yl)piperidin-3-yl)ethyl)methanesulfonamide]
24 | > 5 | 0.01 to 1 | CS(=O)(=O)NCC1(O)CCN(c2cc(-c3cnc4ccc(C(F)F)nn34)ncn2)C1 (stereo not drawn) [II-137, N-((1-(6-(6-(Difluoromethyl)imidazo[1,2-b]pyridazin-3-yl)pyrimidin-4-yl)-3-hydroxypyrrolidin-3-yl)methyl)methanesulfonamide]
25 | 0.5 to 5 | 0.01 to 1 | CS(=N)(=O)CC1CCCN(c2cc(-c3cnc4ccc(C(F)F)nn34)ccn2)C1 (stereo not drawn) [II-138, ((1-(4-(6-(Difluoromethyl)imidazo[1,2-b]pyridazin-3-yl)pyridin-2-yl)piperidin-3-yl)methyl)(imino)(methyl)-λ^6-sulfanone]
26 | > 5 | 0.01 to 1 | CS(=O)(=O)NCC1CN(c2cc(-c3cnc4ccc(C(F)F)nn34)ncn2)CC1O (stereo not drawn) [II-140, N-((1-(6-(6-(Difluoromethyl)imidazo[1,2-b]pyridazin-3-yl)pyrimidin-4-yl)-4-hydroxypyrrolidin-3-yl)methyl)methanesulfonamide]
27 | < 0.5 | < 0.01 | NC(=O)[C@H]1CCCN(c2cc(-c3cnc4ccc(C(F)F)nn34)ccn2)C1 [II-143, (S′)-1-(4-(6-(Difluoromethyl)imidazo[1,2-b]pyridazin-3-yl)pyridin-2-yl)piperidine-3-carboxamide]
28 | < 0.5 | < 0.01 | CS(=O)(=O)NCC1CN(c2cc(-c3cnc4ccc(C(F)F)nn34)ccn2)CCO1 (stereo not drawn) [II-149, N-((4-(4-(6-(Difluoromethyl)imidazo[1,2-b]pyridazin-3-yl)pyridin-2-yl)morpholin-2-yl)methyl)methanesulfonamide]
29 | 0.5 to 5 | 0.01 to 1 | CC(=O)N1CCN(c2cccc(-c3cnc4ccc(C(F)F)nn34)c2)CC1 [II-150, 1-(4-(3-(6-(Difluoromethyl)imidazo[1,2-b]pyridazin-3-yl)phenyl)piperazin-1-yl)ethanone]
30 | 0.5 to 5 | 0.01 to 1 | C[S+]([O-])CC1CCCN(c2cc(-c3cnc4ccc(C(F)F)nn34)ccn2)C1 (stereo not drawn) [II-151, 6-(Difluoromethyl)-3-(2-(3-((methylsulfinyl)methyl)piperidin-1-yl)pyridin-4-yl)imidazo[1,2-b]pyridazine]
